pIC50: −log10 of the molar value.

Series [1] is described as follows: Inhibition of P-gp in human K562 cells assessed as adriamycin IC50 at 2 ug/ml.
Series [2] in a line: Inhibition of P-gp in human K562 cells assessed as adriamycin IC50 at 4 ug/ml.
The nature of series [3]: Inhibition of P-gp in human K562 cells assessed as adriamycin IC50 at 6 ug/ml.
Series [4] can be described thus: Inhibition of P-gp in human K562 cells assessed as adriamycin IC50 at 8 ug/ml.
The nature of series [5]: Inhibition of P-gp in human K562 cells assessed as adriamycin IC50 at 10 ug/ml.
Series [6] can be described thus: Inhibition of P-gp in human K562/A02 cells assessed as adriamycin IC50 at 2 ug/ml.
A short description of series [7]: Inhibition of P-gp in human K562/A02 cells assessed as adriamycin IC50 at 4 ug/ml.
A short description of series [8]: Inhibition of P-gp in human K562/A02 cells assessed as adriamycin IC50 at 6 ug/ml.
The nature of series [9]: Inhibition of P-gp in human K562/A02 cells assessed as adriamycin IC50 at 8 ug/ml.
Series [10] can be described thus: Inhibition of P-gp in human K562/A02 cells assessed as adriamycin IC50 at 10 ug/ml.
The target of a further series is Maltase-glucoamylase (Homo sapiens, UniProt O43451). Kind of series: Inhibition of alpha-glucosidase (unknown origin).
Chain of Maltase-glucoamylase (O43451 whole entry): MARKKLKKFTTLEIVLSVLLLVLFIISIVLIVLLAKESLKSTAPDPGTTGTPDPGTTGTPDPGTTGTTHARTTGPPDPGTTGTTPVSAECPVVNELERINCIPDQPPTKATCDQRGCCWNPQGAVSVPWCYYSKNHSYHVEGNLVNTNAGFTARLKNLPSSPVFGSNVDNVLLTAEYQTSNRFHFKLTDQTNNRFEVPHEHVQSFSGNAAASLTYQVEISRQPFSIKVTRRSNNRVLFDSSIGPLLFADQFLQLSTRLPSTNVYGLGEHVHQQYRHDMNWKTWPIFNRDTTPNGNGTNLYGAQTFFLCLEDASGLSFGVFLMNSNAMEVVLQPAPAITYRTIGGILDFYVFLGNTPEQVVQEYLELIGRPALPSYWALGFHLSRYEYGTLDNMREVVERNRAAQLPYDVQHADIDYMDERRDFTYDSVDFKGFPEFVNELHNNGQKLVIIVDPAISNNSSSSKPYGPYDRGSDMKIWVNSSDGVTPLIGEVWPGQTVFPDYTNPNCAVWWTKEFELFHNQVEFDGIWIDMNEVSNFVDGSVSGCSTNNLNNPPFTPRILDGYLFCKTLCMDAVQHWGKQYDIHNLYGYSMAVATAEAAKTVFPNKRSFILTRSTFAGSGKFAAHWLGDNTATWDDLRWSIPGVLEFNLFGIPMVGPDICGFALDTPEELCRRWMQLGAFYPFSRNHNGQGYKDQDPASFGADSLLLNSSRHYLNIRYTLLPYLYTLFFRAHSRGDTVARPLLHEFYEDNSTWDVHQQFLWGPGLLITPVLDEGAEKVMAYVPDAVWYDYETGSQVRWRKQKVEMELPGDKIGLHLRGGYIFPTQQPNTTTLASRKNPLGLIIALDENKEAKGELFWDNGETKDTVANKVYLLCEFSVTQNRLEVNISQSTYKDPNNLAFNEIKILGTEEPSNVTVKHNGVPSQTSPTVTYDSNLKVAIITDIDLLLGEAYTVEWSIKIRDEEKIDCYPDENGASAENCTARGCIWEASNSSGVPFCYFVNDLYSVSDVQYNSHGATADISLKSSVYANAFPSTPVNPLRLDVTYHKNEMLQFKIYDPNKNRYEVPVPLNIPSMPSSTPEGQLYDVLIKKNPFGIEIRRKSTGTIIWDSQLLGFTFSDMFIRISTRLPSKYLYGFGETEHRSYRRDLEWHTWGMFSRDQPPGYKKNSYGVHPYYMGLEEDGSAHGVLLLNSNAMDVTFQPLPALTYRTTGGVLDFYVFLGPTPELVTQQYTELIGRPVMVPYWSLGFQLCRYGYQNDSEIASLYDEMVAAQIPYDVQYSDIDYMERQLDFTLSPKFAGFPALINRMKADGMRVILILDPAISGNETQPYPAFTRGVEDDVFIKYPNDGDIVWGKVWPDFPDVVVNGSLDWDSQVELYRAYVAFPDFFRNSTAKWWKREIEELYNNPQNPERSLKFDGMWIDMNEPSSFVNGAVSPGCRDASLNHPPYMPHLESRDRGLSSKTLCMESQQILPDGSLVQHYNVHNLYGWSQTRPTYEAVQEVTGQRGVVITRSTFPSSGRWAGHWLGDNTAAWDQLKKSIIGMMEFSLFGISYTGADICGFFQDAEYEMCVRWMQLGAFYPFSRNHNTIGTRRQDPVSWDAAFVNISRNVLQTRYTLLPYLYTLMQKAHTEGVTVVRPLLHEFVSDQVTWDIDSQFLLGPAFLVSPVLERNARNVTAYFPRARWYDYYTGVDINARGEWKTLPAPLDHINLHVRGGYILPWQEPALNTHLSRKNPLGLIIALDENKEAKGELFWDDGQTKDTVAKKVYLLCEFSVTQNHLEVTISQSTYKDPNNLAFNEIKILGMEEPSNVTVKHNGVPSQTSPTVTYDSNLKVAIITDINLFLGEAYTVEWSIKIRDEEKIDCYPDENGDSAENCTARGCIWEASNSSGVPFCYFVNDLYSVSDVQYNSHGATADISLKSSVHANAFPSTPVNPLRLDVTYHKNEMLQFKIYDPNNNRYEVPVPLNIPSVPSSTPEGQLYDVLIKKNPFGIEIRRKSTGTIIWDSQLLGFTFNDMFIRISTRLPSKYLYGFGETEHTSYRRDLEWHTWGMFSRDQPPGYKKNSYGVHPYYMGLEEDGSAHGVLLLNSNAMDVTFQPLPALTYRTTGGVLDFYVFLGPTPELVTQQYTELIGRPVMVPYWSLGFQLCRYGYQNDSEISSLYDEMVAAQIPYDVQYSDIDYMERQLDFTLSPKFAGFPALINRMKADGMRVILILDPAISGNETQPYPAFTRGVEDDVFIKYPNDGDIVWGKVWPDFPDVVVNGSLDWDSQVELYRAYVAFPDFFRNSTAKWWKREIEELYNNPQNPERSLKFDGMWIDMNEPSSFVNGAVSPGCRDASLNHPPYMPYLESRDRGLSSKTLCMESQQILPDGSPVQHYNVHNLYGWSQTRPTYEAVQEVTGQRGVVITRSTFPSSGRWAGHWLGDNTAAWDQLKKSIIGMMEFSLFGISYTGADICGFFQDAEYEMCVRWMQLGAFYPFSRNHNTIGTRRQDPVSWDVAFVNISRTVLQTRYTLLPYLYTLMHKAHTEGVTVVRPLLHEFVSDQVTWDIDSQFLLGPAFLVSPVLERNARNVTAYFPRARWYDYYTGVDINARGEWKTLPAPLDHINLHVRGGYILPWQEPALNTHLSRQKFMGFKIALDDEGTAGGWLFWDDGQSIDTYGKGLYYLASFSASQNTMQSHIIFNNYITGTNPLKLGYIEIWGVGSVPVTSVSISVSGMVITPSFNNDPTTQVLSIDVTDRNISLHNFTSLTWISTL

With `Cc1ccc2[nH]c(=O)c(C)nc2c1`, the negative-log IC50 (pIC50) was 6.10 in series [1]; 6.13 in [2]; 6.29 in series [3]; 6.13 in series [4]; 6.16 in [5]; 4.70 in series [6]. In addition, the pIC50 in series [7] is 4.82; in series [8], 4.98; in [9], 5.05; in series [10], 5.11.
`Cc1nc2cc(F)ccc2[nH]c1=O`: the pIC50 in [1] is 6.11; in series [2] it was 6.17; in series [3] it was 6.08; in [4], 6.14; in series [5], 6.25; in [6] it was 4.89. For the same molecule, the pIC50 in series [7] was 5.04; in series [8], 5.12; in [9], 5.24; in series [10], 5.20.
In turn, `COc1ccc(C(=O)Nc2cccc(C(=O)/C=C3/Nc4ccccc4NC3=O)c2)cc1` had a pIC50 against Maltase-glucoamylase of 3.78.
Turning to `O=C(/C=C/c1ccccc1)/C=C1/Nc2ccccc2NC1=O`, the pIC50 against Maltase-glucoamylase is 4.40.
The same measure, in the same setting: with `COc1ccc(C2SCC(=O)N2c2ccc3nc(Cc4ccc(O)cc4)c(=O)[nH]c3c2)cc1` (centres undefined) the figure was 3.56; with `CC(C)c1nc2ccc(N3C(=O)CSC3c3ccc([N+](=O)[O-])cc3)cc2[nH]c1=O` (centres undefined), 3.52; with `O=c1[nH]c2ccccc2nc1N/N=C/c1cccs1`, 5.00.
Same read-out and setting: next, `COc1cccc(/C=N/Nc2nc3ccccc3[nH]c2=O)c1`: 4.86; `O=c1[nH]c2ccccc2n2c(-c3ccc([N+](=O)[O-])cc3[N+](=O)[O-])ccc12`: 4.64.
In turn, `O=c1[nH]c2ccccc2n2c(-c3ccc(O)cc3O)ccc12` showed a pIC50 at Maltase-glucoamylase of 4.89.
In the case of `O=c1[nH]c2ccccc2n2c(-c3ccc(Cl)c(Cl)c3)ccc12`, at Maltase-glucoamylase, the negative-log IC50 (pIC50) is 4.89.
On the same count and under the same terms, with `Cc1ccc(NC(=O)Cn2c(=O)c(C)nc3ccccc32)c([N+](=O)[O-])c1` the figure was 4.08; with `Cc1nc2ccccc2n(CC(=O)N/N=C/c2ccc(OCCn3cc(CN4CCOCC4)nn3)cc2)c1=O`, 4.38; with `Cc1nc2ccccc2n(CC(=O)N/N=C/c2ccc(OCCn3cc(CN4CCCCC4)nn3)cc2)c1=O`, 4.37.
On the same count and under the same terms, with `Cc1nc2ccccc2n(CC(=O)N/N=C/c2ccc(OCCn3cc(CN4CCCC4)nn3)cc2)c1=O` the figure was 4.34; with `Cc1ccc(-n2cc(COc3ccc(/C=N/NC(=O)Cn4c(=O)c(C)nc5ccccc54)cc3)nn2)cc1`, 4.32.
